Toxic doses and inconclusive results are not listed. Square brackets hold non-standard residues; d marks the D form. Peptide text beside a SMILES is read from it. * marks the point of attachment. Cbz = O=C(OCc1ccccc1)*; OBn = c1ccc(CO*)cc1; Sar = CNCC(=O)O
Test system: L1210 leukemia ip in BDF1 mice, survival T/C
Assay: NCI In Vivo Anticancer Drug Screen. Data for tumor model L1210 Leukemia (intraperitoneal) in B6D2F1 (BDF1) mice
Settings: endpoint: mean survival time, higher = longer survival
How it was run: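 Ratio derived from survival: compound-dosed mice over vehicle-dosed mice, all bearing a transplantable tumor.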

[1] = dose: 50.0 mg/kg/injection, schedule: Q01DX009 (ip), vehicle: Klucel (hydroxypropylcellulose) (HPC)
[2] = dose: 100.0 mg/kg/injection, schedule: Q01DX009 (ip), vehicle: Klucel (hydroxypropylcellulose) (HPC)
[3] = dose: 200.0 mg/kg/injection, schedule: Q01DX009 (ip), vehicle: Klucel (hydroxypropylcellulose) (HPC)
[4] = dose: 100.0 mg/kg/injection, schedule: Q01DX009 (ip), vehicle: saline with Tween-80
[5] = dose: 200.0 mg/kg/injection, schedule: Q01DX009 (ip), vehicle: saline with Tween-80
[6] = dose: 400.0 mg/kg/injection, schedule: Q01DX009 (ip), vehicle: saline with Tween-80
[7] = dose: 400.0 mg/kg/injection, schedule: Q01DX009 (ip), vehicle: Klucel (hydroxypropylcellulose) (HPC)
[8] = dose: 100.0 mg/kg/injection, schedule: Q01DX001 (ip), vehicle: carboxymethylcellulose (CMC)
[9] = dose: 100.0 mg/kg/injection, schedule: Q04DX003 (ip), vehicle: saline with Tween-80
[10] = dose: 200.0 mg/kg/injection, schedule: Q04DX003 (ip), vehicle: saline with Tween-80
[11] = dose: 400.0 mg/kg/injection, schedule: Q04DX003 (ip), vehicle: saline with Tween-80
[12] = dose: 100.0 mg/kg/injection, schedule: Q04DX003 (ip), vehicle: Klucel (hydroxypropylcellulose) (HPC)
[13] = dose: 200.0 mg/kg/injection, schedule: Q04DX003 (ip), vehicle: Klucel (hydroxypropylcellulose) (HPC)
[14] = dose: 400.0 mg/kg/injection, schedule: Q04DX003 (ip), vehicle: Klucel (hydroxypropylcellulose) (HPC)
[15] = dose: 100.0 mg/kg/injection, schedule: Q01DX001 (ip), vehicle: saline
[16] = dose: 200.0 mg/kg/injection, schedule: Q01DX001 (ip), vehicle: saline
[17] = dose: 400.0 mg/kg/injection, schedule: Q01DX001 (ip), vehicle: saline

C/C=C/C=C/C(=O)NO
T/C [1]: 93 % of control
T/C (dose: 62.0 mg/kg/injection, schedule: Q03HX024 (ip), vehicle: saline): 101 % of control
T/C [2]: 102 % of control
T/C (dose: 125.0 mg/kg/injection, schedule: Q03HX024 (ip), vehicle: saline): 94 % of control
T/C (dose: 177.0 mg/kg/injection, schedule: Q01DX009 (ip), vehicle: carboxymethylcellulose (CMC)): 117 % of control
T/C (dose: 177.0 mg/kg/injection, schedule: Q01DX009 (ip), vehicle: saline): 94 % of control
T/C [3]: 104 % of control
T/C (dose: 266.0 mg/kg/injection, schedule: Q01DX009 (ip), vehicle: saline): 117 % of control
T/C (dose: 400.0 mg/kg/injection, schedule: Q01DX009 (ip), vehicle: saline): 121 % of control
T/C (dose: 600.0 mg/kg/injection, schedule: Q01DX009 (ip), vehicle: saline): 165 % of control

CC1CC(=O)NC(N)=N1 (stereo not drawn)
T/C (dose: 100.0 mg/kg/injection, schedule: Q01DX Z (ip), vehicle: saline): 110 % of control
T/C (dose: 200.0 mg/kg/injection, schedule: Q01DX Z (ip), vehicle: saline): 92 % of control

Cc1cc([N+](=O)[O-])ccc1NC(=O)Nc1ccccc1F
T/C [4]: 102 % of control
T/C [5]: 86 % of control
T/C [6]: 96 % of control

COc1ccccc1OCC(=O)N1CCCCC1
T/C (dose: 100.0 mg/kg/injection, schedule: Q04DX002 (ip), vehicle: saline): 101 % of control
T/C (dose: 200.0 mg/kg/injection, schedule: Q04DX002 (ip), vehicle: saline): 107 % of control
T/C (dose: 400.0 mg/kg/injection, schedule: Q04DX002 (ip), vehicle: saline): 90 % of control

CC1CCN(S(=O)(=O)c2ccc(Cl)cc2)CC1
T/C [2]: 102 % of control
T/C [3]: 97 % of control
T/C [7]: 97 % of control

CC(C)CN(C)N=Nc1ccc(C(=N)N)cc1
T/C (dose: 5.0 mg/kg/injection, schedule: Q01DX001 (ip), vehicle: carboxymethylcellulose (CMC)): 94 % of control
T/C (dose: 10.0 mg/kg/injection, schedule: Q01DX001 (ip), vehicle: carboxymethylcellulose (CMC)): 97 % of control
T/C (dose: 20.0 mg/kg/injection, schedule: Q01DX001 (ip), vehicle: carboxymethylcellulose (CMC)): 97 % of control
T/C (dose: 40.0 mg/kg/injection, schedule: Q01DX001 (ip), vehicle: carboxymethylcellulose (CMC)): 92 % of control
T/C (dose: 80.0 mg/kg/injection, schedule: Q01DX001 (ip), vehicle: carboxymethylcellulose (CMC)): 91 % of control
T/C [8]: 105 % of control

CN(CC(=O)OCc1ccccc1)C(=O)CNC(=O)CNC(=O)OCc1ccccc1 (Cbz-Gly-Gly-[Sar]-OBn)
T/C [9]: 92 % of control
T/C [10]: 90 % of control
T/C [11]: 95 % of control

CCOC(=O)c1cnc(SC)nc1Oc1ccccc1Cl
T/C (dose: 100.0 mg/kg/injection, schedule: Q01DX001 (ip), vehicle: saline with Tween-80): 96 % of control
T/C [4]: 98 % of control
T/C (dose: 200.0 mg/kg/injection, schedule: Q01DX001 (ip), vehicle: saline with Tween-80): 97 % of control
T/C [5]: 96 % of control
T/C (dose: 400.0 mg/kg/injection, schedule: Q01DX001 (ip), vehicle: saline with Tween-80): 97 % of control
T/C [6]: 93 % of control

C=CCc1c(C)ccc(C)c1OC
T/C [2]: 97 % of control
T/C [12]: 107 % of control
T/C [3]: 95 % of control
T/C [13]: 102 % of control
T/C [7]: 97 % of control
T/C [14]: 102 % of control

C=CCN1C(=O)NC(=O)C1c1ccsc1 (stereo not drawn)
T/C [15]: 90 % of control
T/C [16]: 93 % of control
T/C [17]: 93 % of control

CC(=O)NC(Cc1ccsc1)(C(=O)O)C(=O)O
T/C [15]: 93 % of control
T/C [16]: 98 % of control
T/C [17]: 98 % of control

CC(=O)Nc1ccc2c(c1)Cc1cccc(NC(C)=O)c1-2
T/C (dose: 25.0 mg/kg/injection, schedule: Q01DX009 (ip), vehicle: Klucel (hydroxypropylcellulose) (HPC)): 95 % of control
T/C [1]: 103 % of control
T/C [2]: 103 % of control

Cc1cc(C(=O)O)c(C)[nH]1
T/C (dose: 25.0 mg/kg/injection, schedule: Q04DX003 (ip), vehicle: Klucel (hydroxypropylcellulose) (HPC)): 105 % of control
T/C (dose: 50.0 mg/kg/injection, schedule: Q04DX003 (ip), vehicle: Klucel (hydroxypropylcellulose) (HPC)): 100 % of control
T/C (dose: 75.0 mg/kg/injection, schedule: Q04DX003 (ip), vehicle: Klucel (hydroxypropylcellulose) (HPC)): 101 % of control
T/C [12]: 93 % of control
T/C [13]: 95 % of control
T/C [14]: 101 % of control

Cc1cc(C)c(C(=O)/C=C(\N)C(=O)c2c(C)cc(C)cc2C)c(C)c1
T/C (dose: 50.0 mg/kg/injection, schedule: Q04DX003 (ip), vehicle: carboxymethylcellulose (CMC)): 110 % of control
T/C (dose: 100.0 mg/kg/injection, schedule: Q04DX003 (ip), vehicle: carboxymethylcellulose (CMC)): 98 % of control
T/C (dose: 200.0 mg/kg/injection, schedule: Q04DX003 (ip), vehicle: carboxymethylcellulose (CMC)): 104 % of control

Nc1cnccc1N1CCN(c2cccc3ccccc23)CC1
T/C (dose: 44.0 mg/kg/injection, schedule: Q01DX009 (ip), vehicle: saline with Tween-80): 98 % of control
T/C (dose: 67.0 mg/kg/injection, schedule: Q01DX009 (ip), vehicle: saline with Tween-80): 93 % of control
T/C [4]: 155 % of control
T/C [9]: 98 % of control
T/C [10]: 96 % of control
T/C [11]: 89 % of control

O=C1CC(C(=O)O)C(C(=O)O)O1 (stereo not drawn)
T/C (dose: 50.0 mg/kg/injection, schedule: Q01DX001 (ip), vehicle: saline): 97 % of control
T/C (dose: 75.0 mg/kg/injection, schedule: Q01DX001 (ip), vehicle: saline): 101 % of control
T/C [15]: 92 % of control
T/C (dose: 150.0 mg/kg/injection, schedule: Q01DX001 (ip), vehicle: saline): 97 % of control
T/C [16]: 90 % of control

Nc1cccc(OCCOc2cccc([N+](=O)[O-])c2)c1
T/C [15]: 101 % of control
T/C [16]: 95 % of control
T/C [17]: 98 % of control

CC(C)(C)Cc1cc(O)c2c(c1O)C(=O)c1ccccc1C2=O
T/C [4]: 98 % of control
T/C [9]: 97 % of control
T/C [5]: 98 % of control
T/C [10]: 97 % of control
T/C [6]: 96 % of control
T/C [11]: 92 % of control

Cc1cc(C2C(O)C(c3cc(C)on3)C2(C)O)no1 (stereo not drawn)
T/C (dose: 100.0 mg/kg/injection, schedule: Q01DX001 (ip), vehicle: Klucel (hydroxypropylcellulose) (HPC)): 98 % of control
T/C [12]: 103 % of control
T/C (dose: 200.0 mg/kg/injection, schedule: Q01DX001 (ip), vehicle: Klucel (hydroxypropylcellulose) (HPC)): 98 % of control
T/C [13]: 97 % of control
T/C (dose: 400.0 mg/kg/injection, schedule: Q01DX001 (ip), vehicle: Klucel (hydroxypropylcellulose) (HPC)): 97 % of control
T/C [14]: 103 % of control

O=C(Oc1ccc(N=Cc2ccc3c(c2)OCO3)cc1)Oc1ccc(N=Cc2ccc3c(c2)OCO3)cc1
T/C [8]: 96 % of control
T/C (dose: 200.0 mg/kg/injection, schedule: Q01DX001 (ip), vehicle: carboxymethylcellulose (CMC)): 95 % of control
T/C (dose: 400.0 mg/kg/injection, schedule: Q01DX001 (ip), vehicle: carboxymethylcellulose (CMC)): 93 % of control

CN(C)CCC(C=O)(CCN(C)C)c1cccc2ccccc12
T/C (dose: 25.0 mg/kg/injection, schedule: Q04DX002 (ip), vehicle: saline with Tween-80): 116 % of control
T/C (dose: 50.0 mg/kg/injection, schedule: Q04DX002 (ip), vehicle: saline with Tween-80): 94 % of control
T/C (dose: 100.0 mg/kg/injection, schedule: Q04DX002 (ip), vehicle: saline with Tween-80): 94 % of control

C/C(=C\c1ccccc1)C(=O)c1ccc(-c2ccccc2)cc1
T/C [2]: 97 % of control
T/C [12]: 100 % of control
T/C [3]: 93 % of control
T/C [13]: 100 % of control
T/C [7]: 92 % of control
T/C [14]: 93 % of control

Source: PubChem BioAssay AID248 (DTP/NCI, 2004)
